In assay [1] the test system is 121 kinases. Briefly: Kinase profiling on a set of 121 kinases. The assay is classed as biochemical. Conditions: for Known Targets (%): kinases presenting the highest inhibitions, lists not exhaustive. On the procedure:
FIG. 1A: The potential inhibition of C14 was tested against 121 kinases, in vitro, at the concentration of 1 μM. The kinase activities, in the presence of C14, are represented, each kinase being represented by a vertical bar. Only 18 kinases have less than 30% activity in the presence of C14.
The specificity of C14 was tested, in vitro, against 121 kinases representative of the kinome. Assays run in duplicate, at the concentration of 1 μM, were performed by MRC (Dundee, UK). Results are represented in FIG. 1. The main targets are highlighted in FIG. 1B.
The profiling was performed at the MRC (Dundee University), in duplicate, on a set of 121 kinases. The panel is representative of the major different classes of kinases. Compounds were used at the concentration of 1 μM. In vitro, IC50 were determined on recombinant kinases by Reaction biology Corp (USA).

Assay [2] addresses Aurora B (Homo sapiens, UniProt Q96GD4). Briefly: Aurora B inhibition in cells: Histone H3 Ser10 phosphorylation by western blotting and immunofluorescence. Conditions: for Aurora B inhibition in cellulo (Histone H3 phosphorylation, in words): U2OS mitotic extracts, 1 μM overnight, western blotting (FIG. 3); for Aurora B inhibition: cells, Histone H3 Ser10 phosphorylation, western blotting and immunofluorescence, compounds 1 μM. Set-up: endogenous in cells; host or cells: U2OS (human osteosarcoma); HeLa also used for the maleate salts; key to Aurora B inhibition: +++: very efficient inhibition; −: no inhibition. The assay is classed as cell-based. On the procedure: Actin is used as control of quantity. Cells were incubated overnight in the presence of either C1, or C2 or CH21 or C14 or DMSO(C: control). All compounds were tested at 1 μM. Proteins were detected by western blotting.
Cells were incubated with the different molecules and Aurora B inhibition is estimated by western blotting (WB) and immuno fluorescent experiments. Histone H3 phosphorylated on Ser10 is used as a marker of Aurora B kinase activity and actin as an internal control. Each WB signal is compared to the control in the absence of compound. The efficiency estimated by WB is indicated by +++: very efficient inhibition to −: no inhibition. Immunofluorescent labelling of a mitotic cell by Histone H3 illustrates Aurora B kinase activity. However immunofluorescence is less sensitive than WB. Active molecules are underlined by a square and the intensity of the line indicates the efficiency of inhibition.
FIG. 10A: Immunofluorescence with phospho-Ser10-Histone H3 antibodies. Either the percentage of positive phospho-Ser10-Histone H3 is indicated or a representative mitosis shown. […] Immunofluorescent assays were realized with a specific phospho-antibody and mitotic U2OS cells are recognized by their DNA content stained with Hoechst. On the right, a representative cell or the percentage of H3-S10-P labelled mitosis.
FIG. 10B: Immunoblotting analysis of histone H3 phosphorylation. U2OS cells were incubated overnight with Nocodazole (50 nM) in the presence of either DMSO (Co) or Compounds (1 μM). Cells were then collected and lyzed. Identical amounts of the lyzed cell samples were run on 18% acrylamide gel containing SDS.
FIGS. 11B and 11C: Immunoblotting analysis of histone H3 phosphorylation. U2OS and HeLa cells were incubated overnight with Nocodazole (50 nM) in the presence of either DMSO (Co) or Compounds (1 μM). Cells were then collected and lyzed. Identical amounts of the lyzed cell samples were run on 18% acrylamide gel containing SDS.
Cells were incubated with the different molecules and Aurora B inhibition is estimated by western blotting and immunofluorescent experiments. Histone H3 phosphorylated on Ser10 is used as a marker of Aurora B kinase activity and actin as an internal control. Results are represented in FIGS. 4 and 10 and Table 3.
Cells were treated by compounds, harvested and lyzed in 9M urea then supplemented with Laemmli sample buffer. Cell extracts were subjected to SDS-PAGE and transferred to nitrocellulose filter (GE Healthcare). After blocking with 5% non-fat milk in PBS for at least 1 hour, the membranes were incubated with the primary antibodies. The following antibodies were used: phospho-Histone H3 Ser10 (1:2000, Upstate Biotechnology), anti LAST1 (Cell signalling), anti Aurora B (epitomics) and anti alpha-tubulin (Sigma) Anti-rabbit horseradish peroxidase (1:5000, GE Healthcare) was used as secondary antibodies. Bands were visualized by ECL technique (Amersham Bioscience).
Cells were seeded on glass coverslips and treated by compounds (1 μM) overnight. After treatment, cells were fixed in 4% formaldhehyde at 37° C. for 15 minutes, then permeabilized for 5 minutes with Triton X-100 in PBS.
Background: Immunoblotting shows a protein as a band on a membrane.

Assay [3] deals with HL60. Briefly: Cell viability test (CellTiter 96 AQueous One Solution). The assay is classed as cell-based. The following applies: Homo sapiens, HL-60; HL60 (Leukemia); 72 h of treatment; read-out: IC50 (cell line viability). The protocol:
(§1) H358, H322 (lung cancer cells), U373 (glioblastomes) and HeLa ([…]) were grown in DMEM (1.5 g/L glucose) whereas HL60 (human myeloid cell line) cells were in RPMI 1640. U2OS (a human osteosarcoma cell line) cells were cultured in McCoy's Medium 5 A and liver cells (SK Hep 1) in DMEM (4 g/L glucose, (Gibco-Invitrogen). Media (Gibco-Invitrogen), were supplemented with 10% heat-inactivated foetal bovine serum (Gibco-Invitrogen), L-glutamine (2 mM), penicillin (100 UI/ml) and streptomycin (100 μg/ml).
(§2) Cell proliferation assays were conducted in 96 well culture plates. Assays were run in triplicate. Cell viability was estimated upon 72 h of treatment with varying concentrations of compound by addition of CellTiter 96Queous one Solution Reagent (Promega) directly to culture wells under conditions defined by the manufacturer.

Assay [4] concerns H358 cells. The assay is described as above. The assay is classed as cell-based. The following applies: for IC50: Homo sapiens, NCI-H358, H358 (Lung), 72 h of treatment, read-out: IC50 (cell line viability). The protocol:
as §1, §2

The test system of assay [5] is U373. The assay is described as above. The assay is classed as cell-based. The following applies: Homo sapiens, U373 MG; U373 (Glioblastoma); 72 h of treatment; read-out: IC50 (cell line viability). The protocol: as §1, §2
For assay [6], the system named is U2OS. The description is as above. Format: cell-based. Conditions: Homo sapiens; U2OS (Osteosarcoma); 72 h of treatment; read-out: IC50 (cell line viability) (converted). On the procedure:
as §1, §2

We go through 3 compounds from patent publication US20140073637A1, “AMINO-SUBSTITUTED-ALKYLOXY-BENZO[E]PYRIDO[4,3-B]INDOLE DERIVATIVES AS NEW POTENT KINASE INHIBITORS” (INSTITUT CURIE, priority 2011, published 2014).

Sequence of Aurora B (Q96GD4 whole entry): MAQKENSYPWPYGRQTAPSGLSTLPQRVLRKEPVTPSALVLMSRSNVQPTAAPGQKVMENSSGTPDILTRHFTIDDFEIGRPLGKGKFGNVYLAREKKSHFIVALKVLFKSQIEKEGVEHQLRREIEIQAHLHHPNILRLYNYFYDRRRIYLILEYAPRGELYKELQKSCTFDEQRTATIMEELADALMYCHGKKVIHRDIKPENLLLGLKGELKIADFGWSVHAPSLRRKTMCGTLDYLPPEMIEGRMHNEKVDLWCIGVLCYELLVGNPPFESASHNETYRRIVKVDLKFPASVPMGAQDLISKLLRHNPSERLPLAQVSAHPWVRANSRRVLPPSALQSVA

Consider `Cc1c[nH]c(=O)c2c1[nH]c1ccc3cc(OCCN(C)C)ccc3c12` [Compound C14, 3-(2-N,N-Dimethylaminoethoxy)-8-methyl-7H,10H-benzo[e]pyrido(4,3-b)indol-11-one], for which the “number of kinases with less than 30% activity in the presence of compound” value in assay [1] (121 kinases tested in vitro at 1 μM) was determined as 18. Besides, in assay [1], the “Known Targets (%)” value is on record as “Aurora B NUAK1 TrkA Tak1 Gck Chk1 Chk2”. In assay [2], the “Aurora B inhibition in cellulo (Histone H3 phosphorylation, in words)” value (from here on “Aurora B inhibition in cellulo”) is listed as “inhibit efficiently”. The “Aurora B inhibition” value in assay [2] was “+++”. The IC50 (usually the concentration that inhibits the measured activity by half) in assay [3] is greater than 2000 nM; in assay [4] it was 470 nM; in assay [5] it was 3100 nM; in assay [6], 720 nM. Moreover, in assay [4] (0.5 μM, cycling H358 cells), the “death of cycling cells” value is “more than 50%”.
With `Cc1cncc2c1[nH]c1ccc3cc(OCCN(C)C)ccc3c12` [CH21, 3-(2-N,N-dimethylaminoethyloxy)-8-methyl-7H-benzo[e]pyrido(4,3-b)indole], the “Known Targets (%)” value in assay [1] is on record as “NUAK1 TrkA Tak1 Gck Flt3”. Moreover, the “Aurora B inhibition in cellulo” value in assay [2] is “no effect”. For the same compound, the “Aurora B inhibition” value in assay [2] was “−”. The IC50 in assay [3] is greater than 2000 nM; in assay [4], 450 nM; in assay [5] it was 360 nM; in assay [6], 1100 nM.
Consider `CCc1c[nH]c(=O)c2c1[nH]c1ccc3cc(OC)ccc3c12` [Compound C1, reference compound], for which the “Known Targets (%)” value in assay [1] is given as “Aurora A Aurora B Chk2 FLT3 Melk”. Besides, the “Aurora B inhibition in cellulo” value in assay [2] is listed as “inhibit efficiently”. In addition, the “Aurora B inhibition” value in assay [2] is recorded as “+++”. Moreover, the half-maximal inhibitory concentration (IC50) in assay [3] is 350 nM; in assay [4], 145 nM; in assay [5], greater than 1000 nM; in assay [6], greater than 1000 nM.
